Measurements as given in patent publication US9896512B2, “Antitumor peptide derived from a complementarity determining region of a humanized monoclonal antibody to NAP12B transporter” (Recepta Biopharma S.A., priority 2010, dated 2018).
Entries after “also recorded” stand apart in the source; their conditions may differ. No end group written: not given here.

How the values were obtained:
Solubility comparison = assay type: physicochemical
From the text: (§1) Peptides have variable half lives in the plasma due to the proteolytic activity and the renal filtration, which are relevant aspects in the pharmacokinetics of drug candidates.

[1] = Peptide degradation by human plasma (HPLC / mass spectrum); assay type: in vitro ADME
Protocol: as §1
To analyze the peptide in HPLC and Mass Spectrum, an aliquot of 200 μL was transferred to a new Eppendorf tube and proteins were precipitated with 20 μL trifluoroacetic acid for 5 minutes at 4° C. After centrifugation for 10 minutes at 14,000 rpm, the supernatant was analyzed in an LC/ESI-MS (Waters).
Regarding assays for determining time-lapse plasma degradation of RB9 peptide, peptide degradation by human plasma was monitored in HPLC and Mass spectra every 30 minutes as described above (FIG. 12). About 50% RB9 was cleaved after 2 hours of incubation at 37° C.

[2] = In vivo peptide toxicity evaluation (histopathology); set-up: species or system mice; details: 300 μg via i.p., seven consecutive days
Protocol: Mice were injected with RB9 (SEQ ID NO: 8) for seven consecutive days (300 μg via i.p.) and were sacrificed thereafter for histopathology. […] Also the peptides were not hemolytic as shown in FIG. 21 for RB10M3 (SEQ ID NO: 31).

[3] = test system: human melanoma A2058 cells; test: Cell migration, wound healing assay; assay type: cell-based; details: peptide 500 μM, 24 hours
Protocol: (§2) For the migration studies, 5×10^5 or 10^6 cells were distributed on 6-well plates and let them to adhere for 2 hours at 37° C./5% CO2. The culture medium was changed and the peptide was added at 500 μM overnight. The cell monolayer was “wounded” with a P1000 tip and incubated for 24 hours. Images of untreated cells (control) and peptide treated cells were captured with a JENOPTIK camera. Cell numbers (nuclei) were determined using the Pixcavator software version 5.0.

[4] = test system: human ovary cancer OVCAR-3 cells; test: Cell migration, wound healing assay; assay type: cell-based; details: peptide 500 μM, 24 hours
Protocol: as §2

[5] = test system: human breast cancer SKBr-3 cells; test: Cell migration, wound healing assay; assay type: cell-based; details: peptide 500 μM, 24 hours
Protocol: as §2

[6] = test system: FibroRP primary human fibroblasts; test: Cell migration, wound healing assay; assay type: cell-based; details: normal non-tumorigenic cells
Protocol: as §2

3T3 murine fibroblasts = test: Cell migration, wound healing assay; assay type: cell-based; details: normal non-tumorigenic cells
Protocol: as §2

[7] = test system: T75 primary human fibroblasts; test: Cell migration, wound healing assay; assay type: cell-based; details: normal non-tumorigenic cells
Protocol: as §2

[8] = test system: human colon cancer HCT cells; test: Cell migration, wound healing assay; assay type: cell-based; details: peptide 500 μM, 24 hours
Protocol: as §2

[9] = test system: B16F10-Nex2 melanoma cells; test: In vivo protection against lung colonization (metastatic melanoma model); set-up: species or system C57B1/6 mice; details: 250 μg i.p. on days 1, 3, 5, 7, 9, 11; lungs after 22 days
Protocol: Details of the in vitro tumor cell growth, cytotoxicity tests, determination of viable cells and in vivo protection experiments with B16F10 cells in a mouse metastatic model are described in Polonelli et al. (PLoS One. 3(6):e2371, 2008) and Dobroff et al. (Translat. Onc., 3: 204-217, 2010).
Peptides RB9 and RB10 along with the apoptotic peptide A4H3, a true microantibody of cytotoxic anti-melanoma mAb (A4) (Dobroff et al., Translat. Onc., 3: 204-217, 2010), were tested for their protective effects against lung colonization by B16F10-Nex2 melanoma cells (2×105) injected intravenously in C57B1/6 mice (6 animals/group). Peptides were intraperitoneally administered (250 μg i.p.) on days 1, 3, 5, 7, 9, 11 after tumor cell challenge. Lungs of peptide-treated animals are shown in FIG. 5 after 22 days of tumor challenge. As noticed, peptide treatment was interrupted 10 days before animal sacrifice.
In vivo protection by peptides RB9 and RB10 (and A4H3 control) against lung colonization by B16F10-Nex2 melanoma cells (2×105) injected intravenously in C57B1/6 mice (6 animals/group) is shown in FIG. 6. The other 5 CDRs of RebMab200 (SEQ ID NOs: 7, 10, 11, 12, 13) were unprotective in vivo. Peptides were administered in the same way as described above, and the number of lung nodules was determined.

HCT cells = test: Detection of peptide-treated hyper adherent cells (MTT after trypsin-EDTA); assay type: cell-based, human; details: 500 μM peptide, 24 hours
Protocol: Viable SiHa cells (1×10^4)/well were distributed on a 96-well culture plate and incubated for 4 hours at 37° C. in a humidified chamber with 5% CO2. Fresh medium containing different peptide concentrations of RB9 (SEQ ID NO: 8) and RB10 (SEQ ID NO: 9) ranging from 0 to 1 mM (i.e., 0, 0.25, 0.5 and 1 mM) was added to the wells and incubated for 24 hours. The medium was then aspirated; cells were detached with 30 μl/well of trypsin-EDTA for five minutes at 37° C. and gently washed with PBS. Hyper-adherent cells were incubated for 4 hours with 0.5 mg/mL of MTT [3-(4,5-dimethylthiazol-2-yl)-2,5-diphenyltetrazolium bromide] in fresh medium and formazan crystals were solubilized adding 1 volume of 10% SDS solution overnight. Intensity was measured using a plate reader at 570 nm.
Viable HCT cells (1×10^4)/well were distributed on a 96-well culture plate and incubated for 4 hours, following the same protocol of Example 5.

B16F10-Nex2 cells [10] = test: Superoxide anion production, dihydroethidium (DHE) assay; assay type: cell-based, murine; details: 1 mM, 18 hours
Protocol: Based on the internal interactions of components, such as, actin and peroxides in tumor cells, even leading to apoptosis, the production of anion superoxide in tumor cells treated with RB10 was examined by dihydroethidium (DHE) assay.
B16F10-Nex2 cells were treated with 1 mM RB10 for 18 hours or 5 mM H2O2 for 20 minutes. Treated cells with peptide or H2O2 and untreated cells were then incubated with DHE. Conversion of DHE to ethidium by oxidation was observed using fluorescence microscopy (Magnification 600×).

[11] = test system: human cervix cancer HeLa cells; test: Cell migration, wound healing assay; assay type: cell-based; details: peptide 500 μM, 24 hours
Protocol: as §2

B16F10-Nex2 cells [12] = test: Growth inhibition (cell number by image analysis); assay type: cell-based, murine
Protocol: Viable B16F10-Nex2 cells (5×10^5)/well were distributed on a 6-well culture plate and incubated for 4 hours. Fresh medium containing 0 or 500 μM of RB10 ([…]) was added to the wells and incubated for 12 hours. Image was captured using a camera (Jenoptik) with the software Progres 2.8. The number of cells was detected using the software pixcavator (intelligent perception). After 12 hours with 0.5 mM of RB10, melanoma cells had fewer cells by 39% (FIG. 15); these cells were still able to proliferate but not to migrate. […] Magnification ×100.

melanoma = test: Primary tumor development in a subcutaneous model; assay type: in vivo; details: susceptible mice

Row | Molecule | solubility (comparison) (Solubility comparison) | degradation in human plasma at 24 hours ([1]; 24 hours, 37° C.) | peptide cleaved / degraded in human plasma ([1]; after 2 hours of incubation at 37° C.) | metabolised at 2 h, 1.67 mg/mL ([1]; human, human plasma, after 2 hours of incubation at 37° C., read-out: peptide cleaved / degraded in human plasma) | toxicity, morphological alterations in liver, lung, heart, kidney and spleen [2] | inhibition of cell migration [3] | inhibition of cell migration [4] | inhibition of cell migration [5] | inhibition of cell migration [6] | inhibition of cell migration (3T3 murine fibroblasts) | inhibition of cell migration [7] | inhibition of cell migration [8] | protection against lung colonization (lung nodules) [9] | cells resistant to trypsinization (HCT cells) | reaction with dihydroethidium (anion superoxide production) (B16F10-Nex2 cells [10]) | inhibition of cell migration [11] | fewer cells than control (B16F10-Nex2 cells [12]; 0.5 mM, 12 hours) | inhibition of growth (B16F10-Nex2 cells [12]; 12 hours incubation) | protection against development of a primary tumor (melanoma)
1 | C[C@@H]1NC(=O)[C@H](CCCNC(=N)N)NC(=O)[C@H](C)NC(=O)[C@H]([C@@H](C)O)NC(=O)[C@H](CCC(=O)O)NC(=O)CNC(=O)[C@H](CCCNC(=N)N)NC(=O)[C@H](C)NC(=O)[C@@H](N)CSSC[C@@H](C(N)=O)NC(=O)CNC(=O)[C@H](CCC(N)=O)NC(=O)CNC(=O)[C@H](Cc2c[nH]c3ccccc23)NC(=O)[C@H](Cc2ccc(O)cc2)NC(=O)[C@H](C)NC(=O)[C@H](Cc2ccccc2)NC(=O)[C@H]([C@@H](C)O)NC1=O [RB9, CARGETARATFAYWGQGC-NH2] | more soluble than RB10 | whole peptide was degraded; also recorded: total degradation | 50% | ~50% | No signs of toxicity or morphological alterations | completely inhibited; also recorded: complete inhibition | half inhibited; also recorded: partial inhibition | completely inhibited; also recorded: complete inhibition | did not affect; also recorded: non-inhibition | did not affect; also recorded: non-inhibition | did not affect; also recorded: non-inhibition | completely inhibited; also recorded: partial inhibition | successfully protected; also recorded: reduced | 80% | – | – | – | – | –
2 | CARGETARATFAYWGQG-NH2 [RB10, CARGETARATFAYWGQG-NH2] | – | – | – | – | – | – | – | – | – | – | – | – | successfully protected; also recorded: protective; also recorded: reduced | 80% | positive | complete or almost complete inhibition | 39% | partial inhibition | not against the development of a primary tumor
